Laboratory results published in ChEMBL document CHEMBL3045602, “Synthesis and antimicrobial activity of novel derivatives of Biginelli pyrimidines” (2012).
In brackets after ≈: the same amount, converted by molar mass.

Key:
Assay type in all cases: functional
Bacillus subtilis = assay: Antimicrobial activity against Bacillus subtilis PTCC 1023 after 24 hr by Alamar blue assay; settings: PTCC 1023, 24 h
Pseudomonas aeruginosa = assay: Antimicrobial activity against Pseudomonas aeruginosa PTCC 1074 after 24 hr by Alamar blue assay; settings: PTCC 1074, 24 h
Escherichia coli = assay: Antimicrobial activity against Escherichia coli PTCC 1338 after 24 hr by Alamar blue assay; settings: PTCC 1338, 24 h
Candida albicans = assay: Antimicrobial activity against Candida albicans PTCC 5027 after 24 hr by Alamar blue assay; settings: PTCC 5027, 24 h
Aspergillus niger = assay: Antimicrobial activity against Aspergillus niger 5021 after 24 hr by Alamar blue assay; settings: Aspergillus niger, 5021, 24 h
Listeria monocytogenes = assay: Antimicrobial activity against Listeria monocytogenes PTCC 1165 after 24 hr by Alamar blue assay; settings: PTCC 1165, 24 h
Staphylococcus aureus = assay: Antimicrobial activity against Staphylococcus aureus PTCC 1337 after 24 hr by Alamar blue assay; settings: PTCC 1337, 24 h
Salmonella enteritidis = assay: Antimicrobial activity against Salmonella enterica subsp. enterica serovar Enteritidis PTCC 1091 after 24 hr by Alamar blue assay; settings: PTCC 1091, 24 h

Row | SMILES | MIC (Bacillus subtilis) | MIC (Pseudomonas aeruginosa) | MIC (Escherichia coli) | MIC (Candida albicans) | MIC (Aspergillus niger) | MIC (Listeria monocytogenes) | MIC (Staphylococcus aureus) | MIC (Salmonella enteritidis)
1 | CC1=C(C(=O)OCC(C)C)C(c2cccs2)NC(S)=N1 (configuration not stated) | > 512 µg/mL | > 512 µg/mL | 512 µg/mL (≈ 1650 µM) | > 512 µg/mL | > 512 µg/mL | 512 µg/mL (≈ 1650 µM) | 512 µg/mL (≈ 1650 µM) | > 512 µg/mL
2 | CC1=C(C(=O)OC(C)C)C(c2cccs2)NC(S)=N1 (configuration not stated) | > 512 µg/mL | > 512 µg/mL | > 512 µg/mL | > 512 µg/mL | > 512 µg/mL | > 512 µg/mL | > 512 µg/mL | > 512 µg/mL
3 | CC1=C(C(=O)Nc2cccc(Cl)c2)C(c2cccs2)NC(=O)N1 (configuration not stated) | 512 µg/mL (≈ 1470 µM) | > 512 µg/mL | > 512 µg/mL | > 512 µg/mL | > 512 µg/mL | 256 µg/mL (≈ 736 µM) | 512 µg/mL (≈ 1470 µM) | > 512 µg/mL
4 | CC1=C(C(=O)Nc2cccnc2)C(c2cccs2)NC(=O)N1 (configuration not stated) | > 512 µg/mL | 512 µg/mL (≈ 1630 µM) | > 512 µg/mL | > 512 µg/mL | > 512 µg/mL | 512 µg/mL (≈ 1630 µM) | > 512 µg/mL | 512 µg/mL (≈ 1630 µM)
5 | COC(=O)C1=C(C)NC(=O)NC1c1cnc(SC)n1Nc1ccccc1 (configuration not stated) | > 512 µg/mL | 256 µg/mL (≈ 686 µM) | 512 µg/mL (≈ 1370 µM) | 128 µg/mL (≈ 343 µM) | 128 µg/mL (≈ 343 µM) | > 512 µg/mL | > 512 µg/mL | 512 µg/mL (≈ 1370 µM)
6 | CCOC(=O)C1=C(C)NC(=O)NC1c1cnc(SC)n1Nc1ccccc1 (configuration not stated) | > 512 µg/mL | 128 µg/mL (≈ 330 µM) | 256 µg/mL (≈ 661 µM) | 64 µg/mL (≈ 165 µM) | 128 µg/mL (≈ 330 µM) | > 512 µg/mL | > 512 µg/mL | 512 µg/mL (≈ 1320 µM)
7 | CCCCOC(=O)C1=C(C)NC(=S)NC1c1cccs1 (configuration not stated) | 512 µg/mL (≈ 1650 µM) | 512 µg/mL (≈ 1650 µM) | 256 µg/mL (≈ 825 µM) | > 512 µg/mL | > 512 µg/mL | 512 µg/mL (≈ 1650 µM) | 512 µg/mL (≈ 1650 µM) | > 512 µg/mL
8 | CSc1ncc(C2NC(=O)NC(C)=C2C(=O)Nc2cccc(Cl)c2)n1Cc1ccccc1 (configuration not stated) | 256 µg/mL (≈ 547 µM) | 256 µg/mL (≈ 547 µM) | > 512 µg/mL | 256 µg/mL (≈ 547 µM) | 128 µg/mL (≈ 274 µM) | > 512 µg/mL | 128 µg/mL (≈ 274 µM) | 256 µg/mL (≈ 547 µM)
9 | CSc1ncc(C2NC(=O)NC(C)=C2C(=O)Nc2ccccc2Cl)n1Nc1ccccc1 (configuration not stated) | > 512 µg/mL | 256 µg/mL (≈ 546 µM) | 256 µg/mL (≈ 546 µM) | 128 µg/mL (≈ 273 µM) | 128 µg/mL (≈ 273 µM) | > 512 µg/mL | > 512 µg/mL | > 512 µg/mL
10 | O=C(O)c1cn(C2CC2)c2cc(N3CCNCC3)c(F)cc2c1=O [CIPROFLOXACIN] | 0.06 µg/mL (≈ 0.181 µM) | – | – | – | – | 1 µg/mL (≈ 3.02 µM) | 0.5 µg/mL (≈ 1.51 µM) | 1 µg/mL (≈ 3.02 µM)
11 | CC(=O)N1CCN(c2ccc(OCC3COC(Cn4ccnc4)(c4ccc(Cl)cc4Cl)O3)cc2)CC1 (configuration not stated) [KETOCONAZOLE] | – | – | – | 2 µg/mL (≈ 3.76 µM) | 4 µg/mL (≈ 7.53 µM) | – | – | –

More lines, now with the values ahead:

Row | MIC (Bacillus subtilis) | MIC (Pseudomonas aeruginosa) | MIC (Escherichia coli) | MIC (Candida albicans) | MIC (Aspergillus niger) | MIC (Listeria monocytogenes) | MIC (Staphylococcus aureus) | MIC (Salmonella enteritidis) | SMILES
12 | > 512 µg/mL | > 512 µg/mL | 512 µg/mL (≈ 1090 µM) | 32 µg/mL (≈ 68.2 µM) | 64 µg/mL (≈ 136 µM) | > 512 µg/mL | > 512 µg/mL | 512 µg/mL (≈ 1090 µM) | CSc1ncc(C2NC(=O)NC(C)=C2C(=O)Nc2ccc(Cl)cc2)n1Nc1ccccc1 (configuration not stated)
13 | > 512 µg/mL | > 512 µg/mL | > 512 µg/mL | 32 µg/mL (≈ 73.5 µM) | 64 µg/mL (≈ 147 µM) | > 512 µg/mL | > 512 µg/mL | > 512 µg/mL | CSc1ncc(C2NC(=O)NC(C)=C2C(=O)Nc2ccccn2)n1Nc1ccccc1 (configuration not stated)
14 | > 512 µg/mL | 512 µg/mL (≈ 1180 µM) | 512 µg/mL (≈ 1180 µM) | 32 µg/mL (≈ 73.5 µM) | 64 µg/mL (≈ 147 µM) | > 512 µg/mL | > 512 µg/mL | > 512 µg/mL | CSc1ncc(C2NC(=O)NC(C)=C2C(=O)Nc2cccnc2)n1Nc1ccccc1 (configuration not stated)
15 | 256 µg/mL (≈ 736 µM) | > 512 µg/mL | > 512 µg/mL | > 512 µg/mL | > 512 µg/mL | 256 µg/mL (≈ 736 µM) | 512 µg/mL (≈ 1470 µM) | > 512 µg/mL | CC1=C(C(=O)Nc2ccccc2Cl)C(c2cccs2)NC(=O)N1 (configuration not stated)
16 | 512 µg/mL (≈ 1470 µM) | 512 µg/mL (≈ 1470 µM) | > 512 µg/mL | > 512 µg/mL | > 512 µg/mL | 512 µg/mL (≈ 1470 µM) | 256 µg/mL (≈ 736 µM) | 512 µg/mL (≈ 1470 µM) | CC1=C(C(=O)Nc2ccc(Cl)cc2)C(c2cccs2)NC(=O)N1 (configuration not stated)
17 | > 512 µg/mL | 512 µg/mL (≈ 1630 µM) | > 512 µg/mL | > 512 µg/mL | > 512 µg/mL | 512 µg/mL (≈ 1630 µM) | 512 µg/mL (≈ 1630 µM) | 512 µg/mL (≈ 1630 µM) | CC1=C(C(=O)Nc2ccccn2)C(c2cccs2)NC(=O)N1 (configuration not stated)
18 | 512 µg/mL (≈ 1370 µM) | 512 µg/mL (≈ 1370 µM) | 512 µg/mL (≈ 1370 µM) | 256 µg/mL (≈ 687 µM) | 256 µg/mL (≈ 687 µM) | > 512 µg/mL | 512 µg/mL (≈ 1370 µM) | > 512 µg/mL | COC(=O)C1=C(C)NC(=O)NC1c1cnc(SC)n1Cc1ccccc1 (configuration not stated)
19 | 512 µg/mL (≈ 1320 µM) | 256 µg/mL (≈ 662 µM) | 256 µg/mL (≈ 662 µM) | 64 µg/mL (≈ 166 µM) | 64 µg/mL (≈ 166 µM) | 512 µg/mL (≈ 1320 µM) | > 512 µg/mL | 512 µg/mL (≈ 1320 µM) | CCOC(=O)C1=C(C)NC(=O)NC1c1cnc(SC)n1Cc1ccccc1 (configuration not stated)
20 | > 512 µg/mL | 512 µg/mL (≈ 1090 µM) | 512 µg/mL (≈ 1090 µM) | 256 µg/mL (≈ 547 µM) | 256 µg/mL (≈ 547 µM) | > 512 µg/mL | > 512 µg/mL | > 512 µg/mL | CSc1ncc(C2NC(=O)NC(C)=C2C(=O)Nc2ccccc2Cl)n1Cc1ccccc1 (configuration not stated)
21 | > 512 µg/mL | 256 µg/mL (≈ 547 µM) | 256 µg/mL (≈ 547 µM) | 256 µg/mL (≈ 547 µM) | 256 µg/mL (≈ 547 µM) | > 512 µg/mL | 256 µg/mL (≈ 547 µM) | > 512 µg/mL | CSc1ncc(C2NC(=O)NC(C)=C2C(=O)Nc2ccc(Cl)cc2)n1Cc1ccccc1 (configuration not stated)
22 | > 512 µg/mL | 256 µg/mL (≈ 589 µM) | 256 µg/mL (≈ 589 µM) | 64 µg/mL (≈ 147 µM) | 128 µg/mL (≈ 295 µM) | > 512 µg/mL | > 512 µg/mL | > 512 µg/mL | CSc1ncc(C2NC(=O)NC(C)=C2C(=O)Nc2ccccn2)n1Cc1ccccc1 (configuration not stated)
23 | 512 µg/mL (≈ 1180 µM) | 256 µg/mL (≈ 589 µM) | 256 µg/mL (≈ 589 µM) | 128 µg/mL (≈ 295 µM) | 128 µg/mL (≈ 295 µM) | > 512 µg/mL | 512 µg/mL (≈ 1180 µM) | 512 µg/mL (≈ 1180 µM) | CSc1ncc(C2NC(=O)NC(C)=C2C(=O)Nc2cccnc2)n1Cc1ccccc1 (configuration not stated)
24 | > 512 µg/mL | 512 µg/mL (≈ 1090 µM) | > 512 µg/mL | 128 µg/mL (≈ 273 µM) | 128 µg/mL (≈ 273 µM) | > 512 µg/mL | > 512 µg/mL | > 512 µg/mL | CSc1ncc(C2NC(=O)NC(C)=C2C(=O)Nc2cccc(Cl)c2)n1Nc1ccccc1 (configuration not stated)
